In patent US20200255436A1, “CORTICOTROPIN RELEASING FACTOR RECEPTOR ANTAGONISTS” (Spruce Biosciences, Inc., priority 2019, published 2020):
Read-outs that look alike come from different tables or passages of the source.

Experiments:
[1] = Study 2 Part A: multiple-dose (14 days) pharmacokinetics; type: in vivo, human; settings: human, plasma; for concentration at 14 day / AUC(0-inf) / half-life: Day 14; for concentration at 14 day / AUC(0-inf): geometric mean; for concentration at 14 day: read-out: Cavg; for half-life: po, half-life calculated by accumulation ratio, read-out: Effective t1/2 (converted)
Description: The 2-part multiple-dose study, Study 2, determined the safety and tolerability of repeated daily doses of Compound 1 and investigated the effects on biomarkers of relevance for the treatment of alcohol dependence.
PK were also evaluated in the multiple-dose, dose-escalation study, Study 2. In Part A of the study, subjects were divided into 3 cohorts and received 50, 150, or 200 mg Compound 1 or placebo for 14 consecutive days (at least 6 subjects received Compound 1 and 2 subjects received placebo in each cohort). […] All dosing occurred in the fed state. An assessment of diurnal cortisol levels, plus when under conditions of glucose clamp, were also carried out both prior to and during the dosing period.
Consistent with the single-dose study (Study 1), concentrations appeared to decline in a bi-exponential manner, characterized by a rapid decrease within the first 24 hours. […] The Tmax appeared to be consistent across doses. Overall half-lives, weight normalized CL/F and V/F were consistent for 150 and 200 mg. However, the values for these latter 2 parameters were almost doubled at the 50-mg dose level. Variability (CV%) for apparent clearance and volume of distribution were large and not reduced with weight-normalization.
Table 8 presents the results of the dose proportionality assessment for the AUC0-24 and Cmax over the tested dose range.

[2] = Study 1: single escalating oral dose pharmacokinetics, fed and fasted; type: in vivo, human; settings: for Cmax / Tmax / AUC(0-inf) / AUC(0-t) / Vd/F / half-life: human, plasma, po; for AUC(0-t): read-out: AUC0-tlast
Description: Study 1 was the first-in-human study that investigated the safety, tolerability, and PK of single-escalating doses of Compound 1, given orally, to healthy adult subjects. […] The data from this study were used for the selection of doses for Study 2.
In Study 1, Compound 1 was administered to healthy adult subjects as a single PO dose of 2, 10, 50, 150, 400, or 800 mg in the fed state and 150 mg in the fasted state. Absorption occurred moderately late, achieving peak Cmax between 4 to 6 hours following dosing in the fed state.
When Compound 1 was given in the fed state, median time to reach maximum plasma concentration (Tmax) occurred between 4 and 6 hours.
As part of this single-dose escalation study, a food effect PK investigation was performed to examine Compound 1 exposures in both the fed and fasted states at the 150-mg dose level. A total of 6 subjects were administered 150 mg Compound 1 in each of these 2 dosing groups. Of these 6 subjects, 4 subjects received Compound 1 at the same dose in both fed and fasted states. […] Table 2 provides a summary of the PK parameters at the 150-mg dose level under both fed and fasted state conditions.
PK parameters AUC0-∞ and Cmax were analyzed separately for dose proportionality for Compound 1 from 50 to 800 mg when administered in the fed state. […] Dose proportionality across administered doses in the fed state could not be concluded on the basis of AUC0-∞ or Cmax.

[3] = 50 mg, 50 mg single oral dose, fed, geometric mean
[4] = 150 mg, 150 mg single oral dose, fasted, geometric mean
[5] = 150 mg, 150 mg single oral dose, fed, geometric mean
[6] = 400 mg, 400 mg single oral dose, fed, geometric mean
[7] = 800 mg, 800 mg single oral dose, fed, geometric mean

## CCC(CC)c1cc(C)nc2c(-c3sc(N4CCOCC4)nc3Cl)c(C)nn12 [Compound 1, 4-(4-chloro-5-(2,5-dimethyl-7-(pentan-3-yl)pyrazolo[1,5-a]pyrimidin-3-yl)thiazol-2-yl)morpholine]
[1]; oral, 50 mg daily
  concentration at 14 day: 11.4 ng/mL
[1]; oral, 150 mg daily
  AUC(0-inf): 4680 ng·h/mL
  concentration at 14 day: 61.7 ng/mL
[1]; oral, 200 mg daily
  AUC(0-inf): 5660 ng·h/mL
  concentration at 14 day: 85 ng/mL
[1]; oral, following multiple daily dosing for 2 weeks
  half-life at 2 weeks: > 100 h
[1]; 50 mg daily
  half-life: 37.7 h
[1]; 150 mg daily
  half-life: 32.7 h
[1]; 200 mg daily
  half-life: 52 h
[2]; 50 mg single oral dose, fed, geometric mean
  CL/F: 302 L/h
[2]; 150 mg single oral dose, fasted, geometric mean
  CL/F: 454 L/h
[2]; 150 mg single oral dose, fed, geometric mean
  CL/F: 157 L/h
[2]; 400 mg single oral dose, fed, geometric mean
  CL/F: 155 L/h
[2]; 800 mg single oral dose, fed, geometric mean
  CL/F: 165 L/h
[2]; 50 to 800 mg, fed state
  AUC0-∞ increase for every doubling of dose relative to dose proportionality: 1.74 times
[2]; 150-mg single dose
  mean AUC0-∞, fed state relative to fasted state: approximately 3 fold
  mean Cmax, fed state relative to fasted state: ~11 fold
[2]; 2 mg, 2 mg single oral dose, fed, geometric mean
  Cmax: 0.867 ng/mL
[2]; 2 mg, 2 mg single oral dose, fed, median, read-out: Tmax
  Tmax: 6 h
[2]; 10 mg, 10 mg single oral dose, fed, geometric mean
  Cmax: 3.01 ng/mL
[2]; 10 mg, 10 mg single oral dose, fed, median, read-out: Tmax
  Tmax: 4 h
[2]; [3]
  AUC(0-inf): 165 ng·h/mL
  Cmax: 19.5 ng/mL
  AUC(0-t): 152 ng·h/mL
[2]; 50 mg, 50 mg single oral dose, fed, geometric mean, read-out: VSS/F
  Vd/F: 8080 L
[2]; 50 mg, 50 mg single oral dose, fed, geometric mean, read-out: VZ/F
  Vd/F: 13500 L
[2]; 50 mg, 50 mg single oral dose, fed, geometric mean, read-out: t1/2 (converted)
  half-life: 31 h
[2]; 50 mg, 50 mg single oral dose, fed, median, read-out: Tmax
  Tmax: 4 h
[2]; [4]
  AUC(0-inf): 331 ng·h/mL
  Cmax: 8.22 ng/mL
  AUC(0-t): 288 ng·h/mL
[2]; 150 mg, 150 mg single oral dose, fasted, geometric mean, read-out: VSS/F
  Vd/F: 25200 L
[2]; 150 mg, 150 mg single oral dose, fasted, geometric mean, read-out: VZ/F
  Vd/F: 25100 L
[2]; 150 mg, 150 mg single oral dose, fasted, geometric mean, read-out: t1/2 (converted)
  half-life: 38.4 h
[2]; 150 mg, 150 mg single oral dose, fasted, median, read-out: Tmax
  Tmax: 10.1 h
[2]; [5]
  AUC(0-inf): 956 ng·h/mL
  Cmax: 93.4 ng/mL
  AUC(0-t): 891 ng·h/mL
[2]; 150 mg, 150 mg single oral dose, fed, geometric mean, read-out: VSS/F
  Vd/F: 4600 L
[2]; 150 mg, 150 mg single oral dose, fed, geometric mean, read-out: VZ/F
  Vd/F: 6620 L
[2]; 150 mg, 150 mg single oral dose, fed, geometric mean, read-out: t1/2 (converted)
  half-life: 29.2 h
[2]; 150 mg, 150 mg single oral dose, fed, median, read-out: Tmax
  Tmax: 4 h
[2]; [6]
  AUC(0-inf): 2580 ng·h/mL
  Cmax: 207 ng/mL
  AUC(0-t): 2300 ng·h/mL
[2]; 400 mg, 400 mg single oral dose, fed, geometric mean, read-out: VSS/F
  Vd/F: 6580 L
[2]; 400 mg, 400 mg single oral dose, fed, geometric mean, read-out: VZ/F
  Vd/F: 9890 L
[2]; 400 mg, 400 mg single oral dose, fed, geometric mean, read-out: t1/2 (converted)
  half-life: 44.2 h
[2]; 400 mg, 400 mg single oral dose, fed, median, read-out: Tmax
  Tmax: 4 h
[2]; [7]
  AUC(0-inf): 4850 ng·h/mL
  Cmax: 382 ng/mL
  AUC(0-t): 4390 ng·h/mL
[2]; 800 mg, 800 mg single oral dose, fed, geometric mean, read-out: VSS/F
  Vd/F: 6820 L
[2]; 800 mg, 800 mg single oral dose, fed, geometric mean, read-out: VZ/F
  Vd/F: 9970 L
[2]; 800 mg, 800 mg single oral dose, fed, geometric mean, read-out: t1/2 (converted)
  half-life: 41.9 h
[2]; 800 mg, 800 mg single oral dose, fed, median, read-out: Tmax
  Tmax: 6 h
[2]; after a single PO dose (fed and fasted state), across dose levels, read-out: Mean half-life (t1/2)
  half-life: 31 to 44 h
[2]; single oral doses 2-800 mg, fed state, read-out: median time to reach maximum plasma concentration (Tmax)
  Tmax: 4 to 6 h
